According to US20230059136A1, “THE COMPOUNDS AND COMPOSITIONS FOR TREATING CONDITIONS ASSOCIATED WITH NLRP ACTIVITY” (Novartis AG, priority 2018, published 2023):
pIC50: −log10 of the molar value.

The compounds below were run on IL-1β production in PMA-differentiated THP-1 cells (assay: IL-1β production in PMA-differentiated THP-1 cells stimulated with gramicidin (hTHP-1 assay containing 2% fetal bovine serum)). Settings: Homo sapiens, THP-1, Table B1; 2% fetal bovine serum; cells printed as numeric bound; read-out: hTHP-1 IC50 (Average IC50 of compounds in hTHP-1 assay).
Format: cell-based, human
Experimental: Procedure 1: IL-1β Production in PMA-Differentiated THP-1 Cells Stimulated with Gramicidin.
THP-1 cells were purchased from the American Type Culture Collection and sub-cultured according to instructions from the supplier. Cells were cultured in complete RPMI 1640 (containing 10% heat inactivated FBS, penicillin (100 units/ml) and streptomycin (100 μg/ml)), and maintained in log phase prior to experimental setup. Prior to the experiment, compounds were dissolved in dimethyl sulfoxide (DMSO) to generate a 30 mM stock. The compound stock was first pre-diluted in DMSO to 3, 0.34, 0.042 and 0.0083 mM intermediate concentrations and subsequently spotted using Echo550 liquid handler into an empty 384-well assay plate to achieve desired final concentration (e.g. 100, 33, 11, 3.7, 1.2, 0.41, 0.14, 0.046, 0.015, 0.0051, 0.0017 μM). DMSO was backfilled in the plate to achieve a final DMSO assay concentration of 0.37%. The plate was then sealed and stored at room temperature until required.
THP-1 cells were treated with PMA (Phorbol 12-myristate 13-acetate) (20 ng/ml) for 16-18 hours. On the day of the experiment the media was removed and adherent cells were detached with trypsin for 5 minutes. Cells were then harvested, washed with complete RPMI 1640, spun down, and resuspended in RPMI 1640 (containing 2% heat inactivated FBS, penicillin (100 units/ml) and streptomycin (100 μg/ml). The cells were plated in the 384-well assay plate containing the spotted compounds at a density of 50,000 cells/well (final assay volume 50 μl). Cells were incubated with compounds for 1 hour and then stimulated with gramicidin (5 μM) (Enzo) for 2 hours. Plates were then centrifuged at 340 g for 5 min. Cell free supernatant (40 μL) was collected using a 96-channel PlateMaster (Gilson) and the production of IL-1β was evaluated by HTRF (cisbio). The plates were incubated for 18 h at 4° C. and read using the preset HTRF program (donor emission at 620 nm, acceptor emission at 668 nm) of the SpectraMax i3x spectrophotometer (Molecular Devices, software SoftMax 6). A vehicle only control and a dose titration of CRID3 (100-0.0017 μM) were run concurrently with each experiment.
Procedure 2: IL-1β Production in PMA-Differentiated THP-1 Cells Stimulated with Gramicidin.
THP-1 cells were purchased from the American Type Culture Collection and sub-cultured according to instructions from the supplier. Prior to experiments, cells were cultured in complete RPMI 1640 (containing 10% heat inactivated FBS, penicillin (100 units/ml) and streptomycin (100 μg/ml)), and maintained in log phase prior to experimental setup. Prior to the experiment THP-1 were treated with PMA (Phorbol 12-myristate 13-acetate) (20 ng/ml) for 16-18 hours. Compounds were dissolved in dimethyl sulfoxide (DMSO) to generate a 30 mM stock. On the day of the experiment the media was removed and adherent cells were detached with trypsin for 5 minutes. Cells were then harvested, washed with complete RPMI 1640, spun down, resuspended in RPMI 1640 (containing 2% heat inactivated FBS, penicillin (100 units/ml) and streptomycin (100 μg/ml). The cells were plated in a 384-well plate at a density of 50,000 cells/well (final assay volume 50 μl). Compounds were first dissolved in assay medium to obtain a 5× top concentration of 500 μM. 10 step dilutions (1:3) were then undertaken in assay medium containing 1.67% DMSO. 5× compound solutions were added to the culture medium to achieve desired final concentration (e.g. 100, 33, 11, 3.7, 1.2, 0.41, 0.14, 0.046, 0.015, 0.0051, 0.0017 μM). Final DMSO concentration was at 0.37%. Cells were incubated with compounds for 1 hour and then stimulated with gramicidin (5 μM) (Enzo) for 2 hours. Plates were then centrifuged at 340 g for 5 min. Cell free supernatant (40 μL) was collected using a 96-channel PlateMaster (Gilson) and the production of IL-1β was evaluated by HTRF (cisbio). A vehicle only control and a dose titration of CRID3 (100-0.0017 μM) were run concurrently with each experiment. […]

SMILES | pIC50
CC(C)c1cc(F)cc(C(C)C)c1C(C)C(=O)N=S(N)(=O)c1cnc(C(C)(C)O)s1 (single isomer, unassigned) [Example 195, (R, R) or (R, S)-N-(amino (2-(2-hydroxypropan-2-yl)thiazol-5-yl)(oxo)-λ^6-sulfaneylidene)-2-(4-fluoro-2,6-diisopropylphenyl) propanamide] | < 4.52
CCc1c2c(cc(C(C)C)c1CC(=O)N=S(N)(=O)c1cnc(C(C)(C)O)s1)COC2 (single isomer, unassigned) [Example 290, (S) or (R)-N-(amino(2-(2-hydroxypropan-2-yl)thiazol-5-yl)(oxo)-λ^6-sulfaneylidene)-2-(4-ethyl-6-isopropyl-1,3-dihydroisobenzofuran-5-yl)acetamide] | < 4.52

Same assay, conditions: Homo sapiens, THP-1, Table B1; 2% fetal bovine serum; class symbols; read-out: hTHP-1 IC50 (Average IC50 of compounds in hTHP-1 assay)

SMILES | pIC50
CC(C)c1cc2c(c(C(C)C)c1CC(=O)N=S(N)(=O)c1cccc(C(C)(C)O)c1)COC2 (single isomer, unassigned) [Example 303, (R) or (S)-N-(amino(3-(2-hydroxypropan-2-yl)phenyl)(oxo)-λ^6-sulfaneylidene)-2-(4,6-diisopropyl-1,3-dihydroisobenzofuran-5-yl)acetamide] | 5.30 to 6.00
CC(C)c1cc(C#CC2CCCCC2)cc(C(C)C)c1CC(=O)N=S(N)(=O)c1cc(C(C)(C)O)n(-c2ccccc2)n1 (single isomer, unassigned) [Example 279, (R) or (S)-N-(amino(5-(2-hydroxypropan-2-yl)-1-phenyl-1H-pyrazol-3-yl)(oxo)-λ^6-sulfaneylidene)-2-(4-(cyclohexylethynyl)-2,6-diisopropylphenyl) acetamide] | 5.30 to 6.00
CC(C)c1cnc(F)c(C(C)C)c1CC(=O)N=S(N)(=O)c1cnc(C(C)(C)O)s1 (single isomer, unassigned) [Example 315, (R) or (S)-N-(amino(2-(2-hydroxypropan-2-yl)thiazol-5-yl)(oxo)-λ^6-sulfaneylidene)-2-(2-fluoro-3,5-diisopropylpyridin-4-yl)acetamide] | 4.52 to 5.30
CC(C)c1ccc(F)c(C(C)C)c1CC(=O)N=S(N)(=O)c1cc(C(C)(C)O)cs1 (stereo not shown) [Example 106, N-(ainino(4-(2-hydroxypropan-2-yl)thiophen-2-yl)(oxo)-λ^6-sulfaneylidene)-2-(3-fluoro-2,6-diisopropylphenyl)acetamide] | 6.70 to 7.40
CC(C)c1cc(C#CC2CCCC2)cc(C(C)C)c1CC(=O)N=S(N)(=O)c1cc(C(C)(C)O)c(-c2ccccc2)s1 (stereo not shown) [Example 240, N-(amino(4-(2-hydroxypropan-2-yl)-5-phenylthiophen-2-yl)(oxo)-λ^6-sulfaneylidene)-2-(4-(cyclopentylethynyl)-2,6-diisopropylphenyl)acetamide] | 4.52 to 5.30
CC(C)c1cc2c(cnn2C)c(C(C)C)c1CC(=O)N=[S@@](N)(=O)c1cnc(C(C)(C)O)s1 [Example 232, (R)-N-(amino(2-(2-hydroxypropan-2-yl)thiazol-5-yl)(oxo)-λ^6-sulfaneylidene)-2-(4,6-diisopropyl-1-methyl-1H-indazol-5-yl)acetamide] | 4.52 to 5.30
CC(C)(O)c1ncc(S(N)(=O)=NC(=O)Cc2c(C3CC3)cc(F)cc2C(F)(F)F)s1 (stereo not shown) [Example 98, N-(amino(2-(2-hydroxypropan-2-yl)thiazol-5-yl)(oxo)-λ^6-sulfaneylidene)-2-(2-cyclopropyl-4-fluoro-6-(trifluoromethyl)phenyl)acetamide] | 4.52 to 5.30

Same assay, conditions: Homo sapiens, THP-1, Table B2; 2% fetal bovine serum; cells printed as numeric bound; read-out: hTHP-1 IC50 (Average IC50 of compounds in hTHP-1 assay)

SMILES | pIC50
CC(C)c1cc(C#N)cc(C(C)C)c1CC(=O)N=[S@](=O)(NC#N)c1ncc(C(C)(C)O)s1 [Example 365] | < 4.52

Same assay, conditions: Homo sapiens, THP-1, Table B2; 2% fetal bovine serum; class symbols; read-out: hTHP-1 IC50 (Average IC50 of compounds in hTHP-1 assay)

SMILES | pIC50
CCn1cc(F)c(S(N)(=O)=NC(=O)Cc2c(C(C)C)cc3c(c2C(C)C)COC3)n1 (single isomer, unassigned) [Example 398, (R) or (S)-N-(amino(1-ethyl-4-fluoro-1H-pyrazol-3-yl)(oxo)-λ^6-sulfaneylidene)-2-(4,6-diisopropyl-1,3-dihydroisobenzofuran-5-yl)acetamide] | 6.00 to 6.70
CC(C)c1cc(C#N)cc(C(C)C)c1CC(=O)N=[S@@](=O)(NC#N)c1sc(C(C)(C)O)nc1CCO [Example 374, (R)-N-(cyanamido(4-(2-hydroxyethyl)-2-(2-hydroxypropan-2-yl)thiazol-5-yl)(oxo)-λ^6-sulfaneylidene)-2-(4-cyano-2,6-diisopropylphenyl)acetamide] | 6.70 to 7.40
CC(C)c1nc(C(F)(F)F)nc(C(C)C)c1CC(=O)N=S(N)(=O)c1cnc(C(C)(C)O)s1 (single isomer, unassigned) [Example 396, (S) or (R)-N-(amino(2-(2-hydroxypropan-2-yl)thiazol-5-yl)(oxo)-λ^6-sulfaneylidene)-2-(4,6-diisopropyl-2-(trifluoromethyl)pyrimidin-5-yl)acetamide] | 5.30 to 6.00
CC(C)c1cc(C#N)c(F)c(C(C)C)c1CC(=O)N=[S@](=O)(NC#N)c1cnc([C@](C)(O)CO)s1 (single isomer, unassigned) [Example 371] | 4.52 to 5.30

Same assay, conditions: Table B1; 2% fetal bovine serum; class symbols; read-out: hTHP-1 IC50 (Average IC50 of compounds in hTHP-1 assay)

SMILES | pIC50
CCc1c2c(cc(C(C)C)c1CC(=O)N=S(N)(=O)c1sc(C(C)(C)O)cc1F)COC2 (single isomer, unassigned) [Example 299, (S) or (R)-N-(amino (3-fluoro-5-(2-hydroxypropan-2-yl)thiophen-2-yl)(oxo)-λ^6-sulfaneylidene)-2-(4-ethyl-6-isopropyl-1,3-dihydroisobenzofuran-5-yl)acetamide] | 4.52 to 5.30
CC(C)c1cc(C#N)c(F)c(C(C)C)c1CC(=O)N=S(N)(=O)c1cc(C(C)(C)O)n(-c2ccccc2)n1 (single isomer, unassigned) [Example 276, (S) or (R)-N-(amino (5-(2-hydroxypropan-2-yl)-1-phenyl-1H-pyrazol-3-yl)(oxo)-λ^6-sulfaneylidene)-2-(4-cyano-3-fluoro-2,6-diisopropylphenyl) acetamide] | 4.52 to 5.30
Cc1ccc(-c2cc(C(C)C)c(CC(=O)N=S(N)(=O)c3ncc(C(C)(C)O)s3)c(C(C)C)c2)cc1C (single isomer, unassigned) [Example 168, (R) or (S)-N-(amino(5-(2-hydroxypropan-2-yl)thiazol-2-yl)(oxo)-λ^6-sulfaneylidene)-2-(3,5-diisopropyl-3′,4'-dimethyl-[1,1′-biphenyl]-4-yl)acetamide] | 6.00 to 6.70
CC(C)c1cc(C#N)cc(C(C)C)c1CC(=O)N=S(N)(=O)c1sc(C(C)(C)O)nc1CO (single isomer, unassigned) [Example 64, N-(amino(4-(hydroxymethyl)-2-(2-hydroxypropan-2-yl)thiazol-5-yl)(oxo)-λ^6-sulfaneylidene)-2-(4-cyano-2,6-diisopropylphenyl)acetamide] | 6.00 to 6.70

Same assay, conditions: Table B2; 2% fetal bovine serum; class symbols; read-out: hTHP-1 IC50 (Average IC50 of compounds in hTHP-1 assay)

SMILES | pIC50
CC(C)c1cc(C#N)c(F)c(C(C)C)c1CC(=O)N=S(N)(=O)c1cnc(C(O)(CO)CO)s1 (single isomer, unassigned) [Example 402, (R) or (S)-N-(amino(oxo) (2-(1,2,3-trihydroxypropan-2-yl)thiazol-5-yl)-λ^6-sulfaneylidene)-2-(4-cyano-3-fluoro-2,6-diisopropylphenyl)acetamide] | 6.00 to 6.70
